# Data: US20120093726A1, “Radiolabeled Fluorine Derivatives of Methionine” (priority 2009, published 2012)
# Key:
# [1] = test system: A431 squamous cell carcinoma xenografts; assay: PET imaging of tracer uptake in A431 tumoured mice; type: in vivo, Balb/c Nude mice; conditions: intravenous, PET at 90 minutes post-tracer injection
# Method: (§1) In vivo imaging studies were performed on a Phillips Allegro™ small animal imaging system in mice implanted with A431 squamous cell carcinoma and HT-29 colon carcinoma xenografts on the left leg of Balb/c Nude mice. Approximately 400 μCi of each of D and L ^18FPM in 100 μl saline were injected intravenously and PET imaging performed at 90 minutes post-tracer injection. A comparison with FDG (fluorodeoxyglucose) uptake was also performed.
# [2] = test system: HT-29 colon carcinoma xenografts; assay: PET imaging of tracer uptake in HT29 tumoured mice; type: in vivo, Balb/c Nude mice; conditions: intravenous, PET at 90 minutes post-tracer injection
# Method: as §1
# [3] = cited from earlier work
# [4] = Radiochemical purity and stability in aqueous formulations (HPLC); type: physicochemical
# Method: The stability of [^18F]-L-FPHCys and [^18F]-D-FPHCys formulated in each of the following solutions: • 1) 5% EtOH/95% phosphate buffer, pH 6, 0.15 M (HLPC solvent) • 2) saline • 3) Dulbecco's phosphate buffered saline, pH 7 • 4) Phosphate buffer, pH 7. were analysed by HPLC using a Gemini 150×4.6 mm, 5 μm, eluting with 100% Phosphate Buffer, pH 11.5, 0.05 M at 1 mL/min, λ=226 nm.
# [5] = test system: sodium-independent L type transport system in tumour cell lines; assay: Competitive inhibition study of tracer uptake, all cell lines; type: cell-based, human; conditions: for tracer uptake in the presence of BCH: all cell lines, BCH 12.5 mmol/L aliquot, 30 min, 37° C.; for transport mechanism of cell uptake: from inhibition by BCH and MeAIB
# Method: (§2) The human A375 (malignant melanoma), A431 (epidermoid carcinoma), HT29 (colorectal adenocarcinoma), MCF-7 (breast adenocarcinoma), MDA-MB-231 (breast adenocarcinoma), PC-3 (prostate adenocarcinoma) tumour cells were grown in RPMI-1640 medium supplemented with 10% fetal bovine serum (FBS) and 2 mM L-glutamine. The human H460 (large cell lung carcinoma) cell line was grown in RPMI-1640 supplemented with 10% FBS, 1 mM L-glutamine and 1 mM sodium pyruvate. The MiaPaCa2 human pancreatic carcinoma cell line was grown in Dulbecco's Modified Eagle medium supplemented with 10% FBS, 2.5% horse serum, 1 mM L-glutamine and 1 mM sodium pyruvate. The human U87MG glioblastoma cell line was cultured in Minimum Essential Medium supplemented with 10% FBS, 2 mM L-glutamine and 1 mM sodium pyruvate. Cells were maintained in 175 cm^2 flasks in a 5% CO2, 37° C. humidified incubator. Cells were passaged routinely every 7 days and the media changed twice weekly.
# (§3) One day prior to the experiments, cell cultures were trypsinised with a solution of 0.05% trypsin in PBS without Ca^2+ and Mg^2+ and containing 0.02% EDTA. Cells were seeded in 24-well culture dishes in complete medium and left to attach overnight. For MCF-7 cells, 3×10^5 cells were seeded, for all other cell lines, 2.5×10^5 cells were seeded.
# Inhibitor studies were carried out to investigate the transport mechanism involved in the uptake of FPM in tumour cells. The following amino acid transport inhibitors were used; 2-amino-bicyclo[2.2.1]-heptane-2-carboxylic acid (BCH) and N-methyl-α-aminoisobutyric acid (MeAIB) for the sodium-independent L type transport system and the A type amino acid transport system respectively.
# On the day of the study, the cells were counted and the viability assessed in triplicate for each cell line. Before the incubation with radiolabelled FPM, cells were washed once with PBS containing Ca^2+ and Mg^2+ to remove all traces of the culture medium. Aliquots of 400 μL of inhibitor (12.5 mmol/L in PBS with Ca^2+ and Mg^2+) or PBS (for controls) were added to cells prior to the addition of radiolabelled FPM. Aliquots of 100 μL (about 10 μCi) of freshly prepared FPM were added and the cells were incubated in triplicate at 37° C. for 30 min. After stopping the tracer uptake with 1 mL of ice-cold PBS, cells were solubilised with 500 μL of 0.2N NaOH and the activity was measured with a gamma counter. The results were expressed as percent of applied dose per 1×10^5 cells. The percentage of uptake in the treatment groups, relative to the control group was determined.
# [6] = test system: HT29 (colorectal adenocarcinoma) tumour cells; assay: Cell uptake study, HT29; type: cell-based, human; conditions: HT29 colon cell line
# Method: as §2, with “weekly. […]” for “weekly.”
# (§4) On the day of the study, the cells were counted and the viability assessed in triplicate for each cell line. […] After stopping the tracer uptake with 1 mL of ice-cold PBS, cells were solubilised with 500 μL of 0.2N NaOH and the activity was measured with a gamma counter. The results were expressed as percent of applied dose per 1×10^5 cells.
# [7] = test system: various types of tumour cells; assay: Cell uptake study, panel of tumour cell lines; type: cell-based, human; conditions: for uptake into tumour cells: particularly MCF-7, U87MG, MiaPaCa2 and A375 cell lines
# Method: as §2, §3
# (§5) On the day of the study, the cells were counted and the viability assessed in triplicate for each cell line. Before the incubation with radiolabelled FPM, cells were washed once with PBS containing Ca^2+ and Mg^2+ to remove all traces of the culture medium. The radiolabelled FPM was formulated in PBS containing Ca^2+ and Mg^2+. Aliquots of 500 μL (˜10 μCi) of freshly prepared FPM were added and the cells were incubated in triplicate at 37° C. for 2, 15, 30, 60, 120, 180 and 240 min. After stopping the tracer uptake with 1 mL of ice-cold PBS, cells were solubilised with 500 μL of 0.2N NaOH and the activity was measured with a gamma counter. The results were expressed as percent of applied dose per 1×10^5 cells.
# H460 cells = assay: Competitive inhibition study of tracer uptake, H460; type: cell-based, human; conditions: MeAIB 12.5 mmol/L aliquot, 30 min, 37° C.
# Method: as §2, with “weekly. […]” for “weekly.”
# as §4, with “cells. The percentage of uptake in the treatment groups, relative to the control group was determined.” for “cells.”
# [8] = test system: MiaPaCa2 human pancreatic carcinoma cell line; assay: Cell uptake study, MiaPaCa2; type: cell-based; conditions: MiaPaCa2 tumour cell line
# Method: as §2, with “weekly. […]” for “weekly.”
# as §4
# [9] = test system: MCF-7 (breast adenocarcinoma) tumour cells; assay: Cell uptake study, MCF-7; type: cell-based, human; conditions: for uptake, rank among the cell lines: MCF-7 breast tumour cell line, 37° C., 2-240 min; for time for which uptake increased before staying at the same level: MCF-7 cell line
# Method: as §2, §3, §5
# MiaPaCa2 cells = assay: Competitive inhibition study of tracer uptake, MiaPaCa2; type: cell-based, human; conditions: MeAIB 12.5 mmol/L aliquot, 30 min, 37° C.
# Method: as §2, with “weekly. […]” for “weekly.”
# as §4, with “cells. The percentage of uptake in the treatment groups, relative to the control group was determined.” for “cells.”
# HT29 cells = assay: Competitive inhibition study of tracer uptake, HT29; type: cell-based, human; conditions: MeAIB 12.5 mmol/L aliquot, 30 min, 37° C.
# Method: as §2, with “weekly. […]” for “weekly.”
# as §4, with “cells. The percentage of uptake in the treatment groups, relative to the control group was determined.” for “cells.”
Compound,percent injected dose (% ID) in tumour [1] [%],tumour to background ratio [1],percent injected dose (% ID) in tumour [2] [%],tumour to background ratio [2],tracer uptake in the presence of BCH [5],transport mechanism of cell uptake [5],"uptake, rank among the cell lines [6]",uptake into tumour cells [7],"tracer uptake in the presence of MeAIB, % of control uptake (H460 cells) [%]",time of peak uptake [8],"uptake, rank among the cell lines [9]",time for which uptake increased before staying at the same level [9] [min],further results
"OC[C@H]1OC(O)[C@H]([18F])[C@@H](O)[C@@H]1O (stereo partly drawn) [FDG, [^18F]Fluoro-2-deoxy-D-glucose, reference compound]",5.84,3.33,2.37,2.11,–,–,–,–,–,–,–,–,–
"N[C@@H](CCSCC[18F])C(=O)O [[^18F]FEHCys, S-(2-[^18F]fluoroethyl)-L-homocysteine]",–,–,–,–,–,–,–,–,–,–,–,–,stability in aqueous systems [3]: considerable instability
"N[C@@H](CCSCCC[18F])C(=O)O [[^18F]FPHCys, S-(3-[^18F]fluoropropyl)homocysteine]",–,–,–,–,–,–,–,–,–,–,–,–,stability in an aqueous environment compared with the S-ethyl homologue ([4]; aqueous environment): substantially more stable
S-(3-[^18F]fluoropropyl)-D-homocysteine [[^18F]-D-FPHCys],1.96,7.86,0.75,2.10,significantly inhibited,predominantly taken up by cells via the sodium-independent L type transport system,lowest uptake,high uptake,76,30 min,highest,120,"% ROI of product peak, F18 chromatogram (radiochemical purity) ([4]; 5% EtOH/95% phosphate buffer, pH 6, 0.15 M (HPLC solvent), t=0): 99.74%; % ROI of product peak, F18 chromatogram (radiochemical purity) ([4]; 5% EtOH/95% phosphate buffer, pH 6, 0.15 M (HPLC solvent), t=4 h): 99.06%; % ROI of product peak, F18 chromatogram (radiochemical purity) ([4]; Dulbecco's phosphate buffered saline, pH 7, t=0): 98.97%; % ROI of product peak, F18 chromatogram (radiochemical purity) ([4]; Dulbecco's phosphate buffered saline, pH 7, t=4 h): 96.20%; % ROI of product peak, F18 chromatogram (radiochemical purity) ([4]; PBS (phosphate buffer, pH 7), t=0): 98.44%; % ROI of product peak, F18 chromatogram (radiochemical purity) ([4]; PBS (phosphate buffer, pH 7), t=4 h): 96.51%; % ROI of product peak, F18 chromatogram (radiochemical purity) ([4]; saline, t=0): 99.30%; % ROI of product peak, F18 chromatogram (radiochemical purity) ([4]; saline, t=4 h): 95.23%"
"N[C@@H](CCSCCC[18F])C(=O)O [[^18F]-L-FPHCys, S-(3-[^18F]fluoropropyl)-L-homocysteine]",2.12,5.39,2.13,2.45,significantly inhibited,predominantly taken up by cells via the sodium-independent L type transport system,lowest uptake,high uptake,70,30,highest,120,"tracer uptake in the presence of MeAIB, % of control uptake (MiaPaCa2 cells): 79%; uptake compared with the other enantiomer ([7]; all cell lines): higher; tracer uptake in the presence of MeAIB, % of control uptake (HT29 cells): 84%"
